US20120128732A1, “COMBINATIONS AND MODES OF ADMINISTRATION OF THERAPEUTIC AGENTS AND COMBINATION THERAPY” (priority 2008, published 2012)

What was measured:
[1] = system: second or third-line metastatic colon cancer; settings: perifosine in combination with capecitabine, patients with advanced; cited from earlier work
[2] = system: metastatic or advanced renal cell carcinoma; settings: progressing after prior therapy with a VEGF receptor inhibitor; cited from earlier work
[3] = system: imatinib-resistant gastrointestinal stromal tumor; settings: addition of perifosine to imatinib, patients; cited from earlier work
[4] = system: MDA-MB-231 breast tumor xenografts; test: Survival signals in MDA-MB-231 breast tumor xenografts after Abraxane (Western blotting, immunohistochemistry); type: in vivo, mice
Method: […] Tumor lysates were analyzed for VEGF expression and pro-survival signals (p42 & p44 kinase, p-NF-κB p50, p-Akt, bcl-2) using Western blotting. Expression of bcl-2 was further analyzed by immunohistochemistry.

Compound: CCCCCCCCCCCCCCCCCCOP(=O)([O-])OC1CC[N+](C)(C)CC1 [perifosine]
- median time to progression over capecitabine alone [1]: more than doubled
- clinical outcome in renal cell carcinoma [2]: clinical benefits
- activity in imatinib-refractory gastrointestinal stromal tumor [3]: minimal activity

Compound: CC(=O)O[C@H]1C(=O)[C@@]2(C)[C@H]([C@H](OC(=O)c3ccccc3)[C@]3(O)C[C@H](OC(=O)[C@H](O)[C@@H](NC(=O)c4ccccc4)c4ccccc4)C(C)=C1C3(C)C)[C@]1(OC(C)=O)CO[C@@H]1C[C@@H]2O [paclitaxel]
- bcl-2 expression in tumors ([4]; surviving MDA-MB-231 tumors, SCID mice, Abraxane 10 to 30 mg/kg IV qdx5, Western blotting and immunohistochemistry): Significant increases
- inflammatory cytokines in tumors ([4]; tumors extracted immediately after therapy, Western blotting and immunohistochemistry): Significant increases
